Values joined by “and” are separate entries in the source; they are usually repeats but may differ in a detail not shown here. Identical values can stand only once.
Columns and labels:
Lysine--tRNA ligase = Lysine--tRNA ligase (Plasmodium falciparum (isolate 3D7), UniProt Q8IDJ8); experiment: Pf-KRS-1 (Lysyl-RNA Synthetase-1, KRS-1, cytosolic KRS) from Plasmodium falciparum. Inhibitor assay, 384 well plate, luminescence read.; type: functional
[1] = molecular target: T1, Coenzyme A biosynthesis bifunctional protein CoaBC (Mycobacterium tuberculosis (strain ATCC 25618 / H37Rv), UniProt P9WNZ1); experiment: Biomol Green assay for MtCoaBC inhibitor, OD650 read; type: functional
T1 sequence (P9WNZ1 whole entry): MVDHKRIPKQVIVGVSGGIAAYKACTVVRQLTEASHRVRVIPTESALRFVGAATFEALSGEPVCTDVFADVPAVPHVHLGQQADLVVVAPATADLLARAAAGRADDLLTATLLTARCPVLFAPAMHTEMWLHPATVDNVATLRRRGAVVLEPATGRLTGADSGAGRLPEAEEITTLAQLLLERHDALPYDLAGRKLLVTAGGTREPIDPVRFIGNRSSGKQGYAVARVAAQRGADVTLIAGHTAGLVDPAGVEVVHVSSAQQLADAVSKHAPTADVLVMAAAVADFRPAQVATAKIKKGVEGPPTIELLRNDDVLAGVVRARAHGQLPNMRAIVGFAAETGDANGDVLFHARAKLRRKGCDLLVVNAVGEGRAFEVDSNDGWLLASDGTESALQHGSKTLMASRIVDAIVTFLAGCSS

Histidine--tRNA ligase = molecular target: T2, Histidine--tRNA ligase (Leishmania infantum, UniProt A4I591); experiment: Leishmania infantum Histidine tRNA synthetase (LdHisRS); type: functional
T2 sequence (A4I591 whole entry): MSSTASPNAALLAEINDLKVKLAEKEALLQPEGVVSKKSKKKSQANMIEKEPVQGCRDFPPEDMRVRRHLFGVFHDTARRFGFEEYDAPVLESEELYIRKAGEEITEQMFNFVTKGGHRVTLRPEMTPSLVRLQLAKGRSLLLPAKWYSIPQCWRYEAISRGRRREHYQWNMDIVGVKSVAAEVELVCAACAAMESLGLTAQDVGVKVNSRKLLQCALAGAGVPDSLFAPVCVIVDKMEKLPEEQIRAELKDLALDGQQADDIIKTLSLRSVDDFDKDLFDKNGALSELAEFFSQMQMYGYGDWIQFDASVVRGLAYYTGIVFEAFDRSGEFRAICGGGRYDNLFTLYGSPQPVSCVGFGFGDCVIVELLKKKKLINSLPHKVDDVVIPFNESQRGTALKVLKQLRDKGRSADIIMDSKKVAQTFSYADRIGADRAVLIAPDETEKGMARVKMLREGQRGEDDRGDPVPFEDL

Plasmodium falciparum = experiment: Calibr Malaria Delayed Death Assay SOP; type: functional, organism-based
ClpP1P2 = ClpP1P2 (Mycobacterium tuberculosis (strain ATCC 25618 / H37Rv), UniProt P9WPC3+P9WPC5); experiment: in vitro assay to detect presence of AMC directly proportional to the activity of ClpP1P2. GHDDI collaboration.; type: functional
Sequence of ClpP1P2 (P9WPC5 whole entry): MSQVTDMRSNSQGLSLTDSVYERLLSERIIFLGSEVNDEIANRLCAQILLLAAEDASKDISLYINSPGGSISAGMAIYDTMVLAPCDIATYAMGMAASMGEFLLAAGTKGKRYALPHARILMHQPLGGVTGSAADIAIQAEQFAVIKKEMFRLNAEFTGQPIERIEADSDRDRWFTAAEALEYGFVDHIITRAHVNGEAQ
Sequence of ClpP1P2 (P9WPC3 whole entry): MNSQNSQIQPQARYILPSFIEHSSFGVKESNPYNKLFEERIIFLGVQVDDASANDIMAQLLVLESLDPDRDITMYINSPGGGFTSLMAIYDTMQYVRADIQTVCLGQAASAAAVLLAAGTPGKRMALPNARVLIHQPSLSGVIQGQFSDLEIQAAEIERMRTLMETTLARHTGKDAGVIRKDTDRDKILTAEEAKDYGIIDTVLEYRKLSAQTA

Leishmania donovani = experiment: Leishmania intramacrophage assay; type: functional, organism-based; conditions: Leishmania donovani
[2] = In vitro enzyme assay to detect hydrolysis of chlorophenol red-beta-D-[…] directly proportional to the number of Toxoplasma stably expressing beta-galactosidase; type: functional, organism-based, Toxoplasma gondii; conditions: for IC50: Toxoplasma gondii

Sequence of Lysine--tRNA ligase (Q8IDJ8 whole entry): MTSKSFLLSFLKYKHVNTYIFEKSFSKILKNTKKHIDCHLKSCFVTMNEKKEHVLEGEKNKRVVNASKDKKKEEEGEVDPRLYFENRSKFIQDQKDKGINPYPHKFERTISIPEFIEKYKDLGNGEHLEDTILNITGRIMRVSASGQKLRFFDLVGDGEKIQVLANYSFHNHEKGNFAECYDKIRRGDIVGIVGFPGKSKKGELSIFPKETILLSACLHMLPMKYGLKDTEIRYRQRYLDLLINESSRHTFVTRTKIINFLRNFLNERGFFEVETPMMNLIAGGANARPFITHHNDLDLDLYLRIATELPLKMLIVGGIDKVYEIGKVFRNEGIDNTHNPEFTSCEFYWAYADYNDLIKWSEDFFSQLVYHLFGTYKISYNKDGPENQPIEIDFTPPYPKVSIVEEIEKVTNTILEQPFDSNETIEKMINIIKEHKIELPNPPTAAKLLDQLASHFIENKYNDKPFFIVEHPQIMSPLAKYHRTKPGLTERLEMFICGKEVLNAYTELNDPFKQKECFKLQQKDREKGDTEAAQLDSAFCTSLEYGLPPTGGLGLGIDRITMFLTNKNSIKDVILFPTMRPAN

SMILES | IC50 (Lysine--tRNA ligase) [µM] | other results
Cc1noc(C)c1CN1CCOC2(CCCN(c3nncs3)C2)C1 (stereo not drawn) | > 50.1 | –
CC(C)CN1Cc2nc(N)ncc2C1=O | 35.6 | –
COc1cccc(-n2c(C)cc(C(=O)NS(C)(=O)=O)c2C)c1 | > 50.1 | –
CNC(=O)c1ccc2c(c1)C1(CCN(CC(C)C)CC1)C(=O)N2 | > 50.1 | –
CSC(C)C(=O)NCc1ccc(-n2cncn2)nc1 (stereo not drawn) | > 50.1 | –
NC(=O)c1csc(N2CCCC(c3n[nH]c(=O)n3-c3ccccc3)C2)n1 (stereo not drawn) | > 50.1 | –
COCc1cc(N(CC(F)F)C2CC2)n2ncnc2n1 | > 50.1 | –
Cc1cccc2c1nc(CCO)n2-c1ccc(N)nc1 | > 50.1 | –
CC1(C)CCN1C(=O)c1cc(F)cc2[nH]cnc12 | > 50.1 | –
O=c1[nH]c2c(c(=O)n1C1CCCCC1)CCC2Nc1ccccc1 (stereo not drawn) | > 50.1 | –
CN(C)C(=O)N1C[C@@H]2CC[C@H](C1)N(C/C=C/c1ccc(F)cc1)C2 | > 50.1 | –
Cc1nnc(NC(=O)CN2CCOC(Cn3cccn3)C2)s1 (stereo not drawn) | > 50.1 | –
CCc1nc(C2CCCN2Cc2noc(Cc3ccccc3)n2)no1 (stereo not drawn) | > 50.1 | –
COc1ccc(CC(=O)N2CCCC(c3nncn3C)C2)cc1 (stereo not drawn) | > 50.1 | –
CN1[C@H](Cn2cncn2)C[C@@H]2CN(Cc3cccc(C#N)c3)CC[C@@H]21 | > 50.1 | –
Cc1cc(C)c2nc(CNC3CCNC3=O)cc(O)c2c1 (stereo not drawn) | > 50.1 | –
Cc1sc(Oc2ccccc2Cl)nc1C(=O)O | > 50.1 | –
COCCOc1ccc(NC(=O)N2CCCC2c2ccsc2)cn1 (stereo not drawn) | > 50.1 | –
CCOc1ccc(CC(CNC(=O)c2ccoc2C)C(N)=O)cc1 (stereo not drawn) | > 50.1 | –
Cn1c(=O)c2c(n3ncnc13)NC(=O)CC2c1ccc(F)cc1 (stereo not drawn) | > 50.1 | –
Cc1ccc(CN2CCCN(Cc3cscn3)CC2)cc1 | > 50.1 | –
Cc1nc(CN2CCCC(N(C)Cc3nc(CC(C)C)no3)C2)no1 (stereo not drawn) | > 50.1 | –
Cc1nc(N(C)CCCc2nccn2C)c2nc(C)oc2n1 | > 50.1 | –
Cc1nn(C)c(C)c1NC(=O)CN1CCOC(Cn2cccn2)C1 (stereo not drawn) | > 50.1 | –
Cc1ccc(NS(=O)(=O)c2cnn(-c3ccccc3)c2)c(C(=O)O)c1 | – | IC50 [1]: 22.5 µM and 20.5 µM; IC50 (Histidine--tRNA ligase): 38.9 µM and 18.2 µM

SMILES | IC50 (Lysine--tRNA ligase) [µM] | other results
O=S(=O)(NC1CCC12CCN(CC1CCOCC1)CC2)c1ccccc1 (stereo not drawn) | > 50.1 | –
CCCC(=O)N1CCCCC1C(=O)Nc1ccc(-c2nnc[nH]2)cc1 (stereo not drawn) | > 50.1 | –
CCCc1ccc(CN2CCN(C(=O)C(C)C)[C@@H]3CS(=O)(=O)C[C@@H]32)o1 | > 50.1 | –
CC(C)c1nccn1C1CCCN(C(=O)c2ccc3c(c2)COC3)C1 (stereo not drawn) | > 50.1 | –
Cc1nnc(CN2CCCC(CCc3ccccc3C(F)(F)F)C2)o1 (stereo not drawn) | > 50.1 | –
Cc1ccc(C)c2c(O)cc(CN[C@H]3CCCCNC3=O)nc12 | > 50.1 | –
O=C(CCNC(=O)c1ccoc1)Nc1cccc(F)c1 | > 50.1 | –
c1csc(CN2CCCN(c3ncnc4[nH]ccc34)CC2)c1 | > 50.1 | –
Cc1nc(N(C)C)ncc1C(=O)NCCc1csc(-c2cnccn2)n1 | > 50.1 | –
Cc1nc(CN2CCC3(CCCO3)CC2)c2ccccn12 | > 50.1 | –
Fc1cccc(CN2CCN(Cc3cscn3)CC2)c1 | > 50.1 | –
O=C(c1c[nH]nn1)N1CCCC1C1CCCCC1 (stereo not drawn) | 42.3 | –
C=C(C)Cn1ccc2cc(OC)c(F)cc2c1=O | > 50.1 | –
CC(NC(=O)NCCCOc1ccccc1F)c1nncn1C (stereo not drawn) | > 50.1 | –
CC(NC(=O)NCCOc1ccc(Cl)cc1)c1nncn1C (stereo not drawn) | > 50.1 | –
O=C(NCC1CCC1)c1ccnc(-n2ccnc2)c1 | > 50.1 | –
c1cnn(C2CN(c3ncnc4[nH]ccc34)C2)c1 | > 50.1 | –
FC(F)(F)c1ccc(CN2CCN(Cc3cscn3)CC2)cc1 | > 50.1 | –
CC(C)NC(=O)N1CCc2c(CNc3ncccn3)cncc2C1 | > 50.1 | –
COc1cccc(CNc2cc(C)nc(-c3ccncc3)n2)c1OC | – | pIC50 (Plasmodium falciparum): 6.336; IC50 (Plasmodium falciparum; Plasmodium falciparum): 0.465 µM; IC50 [1]: > 30.2 µM; IC50 (Histidine--tRNA ligase): 91.8 µM and > 100 µM
COc1ccc(-c2nc(CCNc3nnc(C)c(C)c3C#N)co2)cc1 | – | IC50 [1]: > 30.2 µM; IC50 (Histidine--tRNA ligase): 58.1 µM and 60.7 µM
COCCC(=O)N1CCC2(CC1)CC(c1ccccc1)CN(C1CC1)C2 (stereo not drawn) | > 50.1 | –
Cc1ccc(C2CCCN2Cc2nc3c(cnn3C)c(=O)[nH]2)cc1C (stereo not drawn) | > 50.1 | –
CN(C)CCn1ccnc1C1CCN(c2cc(N)nc(N)n2)CC1 | > 50.1 | –
CCc1ccc(CN2CCN(C(=O)C(C)C)[C@@H]3CS(=O)(=O)C[C@@H]32)cc1 | > 50.1 | –

SMILES | IC50 (Lysine--tRNA ligase) [µM] | other results
CCC[C@@H]1CN(Cc2nnc(-c3cccc(F)c3)o2)C[C@H]1NC(C)=O | > 50.1 | –
CNS(=O)(=O)c1ccc(CNC(=O)NCC2CCC2)cc1 | > 50.1 | –
Cc1nc(CN2CCCC(CCc3ccccc3C(F)(F)F)C2)co1 (stereo not drawn) | > 50.1 | –
O=C(NCC1(O)CCSCC1)c1ccoc1 | > 50.1 | –
Cc1ccc(N2CC[C@H](OCC3CC3)[C@@H]2Cc2cnn(C)c2)nn1 | > 50.1 | –
Cc1ncc(CN2CCOC(CN(C)c3cccnn3)C2)s1 (stereo not drawn) | > 50.1 | –
Cc1nc[nH]c1CN1CCn2nc(CN3Cc4ccccc4C3)cc2C1 | > 50.1 | –
Cc1cc2ccccc2n1CCC(=O)N1CCCCC1CCO (stereo not drawn) | > 50.1 | –
NC(=O)c1ccc(CN2C(=O)C3(CCNCC3)Nc3ccccc32)cc1 | > 50.1 | –
Cc1nc(-c2ccc(CC(=O)N3CCN(C(=O)C(C)C)CC3)cc2)cs1 | – | IC50 (ClpP1P2): 8.96 µM; IC50 [1]: > 30.2 µM; IC50 (Histidine--tRNA ligase): 24.8 µM and 12.4 µM
COc1ccc(-n2cc(CNC(=O)c3ccc[nH]3)nn2)cc1 | – | IC50 [1]: > 30.2 µM; IC50 (Histidine--tRNA ligase): 33.4 µM and 45.8 µM
CCn1cc(-c2cc(C(F)(F)F)nc(NC3CCCC3)n2)c(C)n1 | – | IC50 (Leishmania donovani): > 50.1 µM; pIC50 [2]: 4.783; IC50 [2]: 17.8 µM; IC50 [1]: > 30.2 µM
COc1ccsc1C(=O)Nc1cc(Br)c(=O)n(C)c1 | – | IC50 [1]: > 30.2 µM; IC50 (Histidine--tRNA ligase): 19.7 µM and 23.3 µM
O=C(O)CN1CCC(F)(F)C2(CCN(c3ccccc3)C2)C1 (stereo not drawn) | – | IC50 (Leishmania donovani): > 50.1 µM; IC50 [1]: > 30.2 µM; IC50 (Histidine--tRNA ligase): 43.6 µM and 39.5 µM
O=S(=O)(CCCn1cncn1)Cc1ccc(F)cc1Cl | – | IC50 [1]: 4.13 µM and 4.68 µM; IC50 (Histidine--tRNA ligase): 10.5 µM and 17.6 µM
N#Cc1ccsc1N1CCC(Sc2ccncc2)C1=O (stereo not drawn) | – | IC50 [1]: > 30.2 µM; IC50 (Histidine--tRNA ligase): 17.7 µM and 33 µM
O=C(NCc1cccnc1N1CCc2ccccc2C1)c1cc(=O)[nH][nH]1 | – | IC50 [1]: > 30.2 µM; IC50 (Histidine--tRNA ligase): 44.8 µM and 45.1 µM
c1csc(C2(NCc3csc(C4CC4)n3)CCCC2)n1 | – | IC50 [1]: > 30.2 µM; IC50 (Histidine--tRNA ligase): 57.3 µM and 56.6 µM
Cc1n[nH]c(C)c1-c1c(C#N)c(N)nc2c1CCc1[nH]ccc1-2 | – | IC50 (ClpP1P2): > 100 µM; IC50 [1]: > 30.2 µM; IC50 (Histidine--tRNA ligase): 16.8 µM and 18.1 µM
COc1ccc(-n2c(CCC(=O)O)nc3ccccc32)cc1CO | – | IC50 [1]: > 50.1 µM; IC50 (Histidine--tRNA ligase): 68.6 µM and 44 µM
Cc1cc(N2CCC(O)CC2)nc(C2CCCN2C)n1 (stereo not drawn) | – | IC50 [1]: > 30.2 µM; IC50 (Histidine--tRNA ligase): 31 µM and 38.1 µM
NCC1Cc2cc(Oc3cc(F)c(CN4CCCC4)c(F)c3)ccc2O1 (stereo not drawn) | – | IC50 (ClpP1P2): 20.8 µM; IC50 [2]: 20.4 µM; IC50 [1]: > 30.2 µM; IC50 (Histidine--tRNA ligase): 30.2 µM and 36.9 µM
CS(=O)(=O)N1CCC2(CC1)CN(CCn1cccn1)C(=O)CO2 | – | IC50 [1]: > 50.1 µM; IC50 (Histidine--tRNA ligase): > 100 µM
Cc1ccc(C)n1-c1ccc(C(=O)NCCNc2ncccn2)cc1 | – | IC50 [1]: > 30.2 µM; IC50 (Histidine--tRNA ligase): > 100 µM
CCN(Cc1ccc2cccc(O)c2n1)CC1CCCO1 (stereo not drawn) | – | IC50 [1]: > 30.2 µM; IC50 (Histidine--tRNA ligase): 18.6 µM and 12.3 µM

— ChEMBL document CHEMBL3988442, “University of Dundee, Small-Polar-MMV Screening Library” (2021)
